Results: US8623871B2, “Substituted biaryl compounds for inflammation and immune-related uses” (Synta Pharmaceuticals Corp., priority 2006, dated 2014)
Structures can show the parent of a compound that is named as a salt.

test system: IL-2 production; assay: Inhibition of IL-2 production in PHA-activated Jurkat cells (ELISA); assay type: cell-based; conditions: Homo sapiens, 20 h, PHA 2.5 μg/mL, IL-2 ELISA
Experimental: Jurkat cells were placed in a 96 well plate (0.5 million cells per well in 1% FBS medium) then a test compound of this invention was added at different concentrations. After 10 minutes, the cells were activated with PHA (final concentration 2.5 μg/mL) and incubated for 20 hours at 37° C. under CO2. The final volume was 200 μL. Following incubation, the cells were centrifuged and the supernatants collected and stored at −70° C. prior to assaying for IL-2 production. A commercial ELISA kit (IL-2 Eli-pair, Diaclone Research, Besancon, France) was used to detect production of IL-2, from which dose response curves were obtained. The IC50 value was calculated as the concentration at which 50% of maximum IL-2 production after stimulation was inhibited versus a non-stimulation control.

SMILES | IC50 [nM]
Cc1ccc(-c2ncco2)cc1-c1ccc(NC(=S)Cc2ccc(F)cc2F)cc1 [Compound 124, 2-(2,4-Difluoro-phenyl)-N-(2′-methyl-5′-oxazol-2-yl-biphenyl-4-yl)-thioacetamide] | 50 to 100
O=C(Nc1ccc(-c2cc(C(F)(F)F)ccc2Cl)cc1)C1CC2CCC1C2 (centres unmarked) [Compound 130, N-(2′-chloro-5′-(trifluoromethyl)biphenyl-4-yl)bicyclo[2.2.1]heptane-2-carboxamide] | 100 to 500
CC1CCCCC1C(=O)Nc1ccc(-c2cc(C(F)(F)F)ccc2Cl)cc1 (centres unmarked) [Compound 128, N-(2′-chloro-5′-(trifluoromethyl)biphenyl-4-yl)-2-methylcyclohexanecarboxamide] | 100 to 500
C=CCNCc1ccc(-c2cc(-c3ncco3)ccc2C)cc1 [Compound 136, N-((2′-methyl-5′-(oxazol-2-yl)biphenyl-4-yl)methyl)prop-2-en-1-amine] | > 1000
O=C(Nc1ccc(-c2cc(C(F)(F)F)ccc2Cl)cc1)C1CC1 [Compound 125, N-(2′-chloro-5′-(trifluoromethyl)biphenyl-4-yl)cyclopropanecarboxamide] | 100 to 500
CCCNCc1ccc(-c2cc(-c3ncco3)ccc2C)cc1 [Compound 137, N-((2′-methyl-5′-(oxazol-2-yl)biphenyl-4-yl)methyl)propan-1-amine] | > 1000
CCCCNc1ccc(-c2cc(C(=O)OC)ccc2C)cc1 [Compound 142, methyl 4′-(butylamino)-6-methylbiphenyl-3-carboxylate] | 100 to 500
Cc1ccc(-c2ncco2)cc1-c1ccc(NC(=O)C2CCCCN2C)cc1 (centres unmarked) [Compound 8, 1-Methyl-piperidine-2-carboxylic acid (2′-methyl-5′-oxazol-2-yl-biphenyl-4-yl)-amide] | 100 to 500
CN1CCCC1C(=O)Nc1ccc(-c2cc(C(F)(F)F)ccc2Cl)cc1 (centres unmarked) [Compound 134, N-(2′-chloro-5′-(trifluoromethyl)biphenyl-4-yl)-1-methylpyrrolidine-2-carboxamide] | > 1000
Cc1ccc(-c2ncco2)cc1-c1ccc(NC(=O)Cc2ccc(Cl)cc2)cc1 [Compound 35, 2-(4-Chloro-phenyl)-N-(2′-methyl-5′-oxazol-2-yl-biphenyl-4-yl)-acetamide] | 100 to 500
CCOC(=O)CNc1ccc(-c2cc(-c3ncco3)ccc2C)cc1 [Compound 147, ethyl 2-(2′-methyl-5′-(oxazol-2-yl)biphenyl-4-ylamino)acetate] | > 1000
CCCCNc1ccc(-c2cc3c(cc2C)OCO3)cc1 [Compound 141, N-butyl-4-(6-methylbenzo[d][1,3]dioxol-5-yl)aniline] | 100 to 500
O=C(Nc1ccc(-c2cc(C(F)(F)F)ccc2Cl)cc1)C1CCCC1 [Compound 108, N-(2′-chloro-5′-(trifluoromethyl)biphenyl-4-yl)cyclopentanecarboxamide] | 20 to 50
CCC(C(=O)Nc1ccc(-c2cc(-c3ncco3)ccc2C)cc1)N(C)C (centres unmarked) [Compound 9, 2-Dimethylamino-N-(2′-methyl-5′-oxazol-2-yl-biphenyl-4-yl)-butyramide Hydrochloride] | > 500
Cc1ccc(-c2ncco2)cc1-c1ccc(NC(=O)[C@@H](N)C(C)C)cc1 (stereo in doubt) [Compound 123, 2-Amino-3-methyl-N-(2′-methyl-5′-oxazol-2-yl-biphenyl-4-yl)-butyramide] | > 500
Cc1ccc(-c2ncco2)cc1-c1ccc(NC(=O)CN)cc1 [Compound 11, 2-Amino-N-(2′-methyl-5′-oxazol-2-yl-biphenyl-4-yl)-acetamide] | > 1000
CN1CCC(C(=O)Nc2ccc(-c3cc(C(F)(F)F)ccc3Cl)cc2)CC1 [Compound 133, N-(2′-chloro-5′-(trifluoromethyl)biphenyl-4-yl)-1-methylpiperidine-4-carboxamide] | > 1000
CCCCNCc1ccc(-c2cc(-c3ncco3)ccc2C)cc1 [Compound 135, N-((2′-methyl-5′-(oxazol-2-yl)biphenyl-4-yl)methyl)butan-1-amine] | > 1000

SMILES | IC50 [nM]
Cc1ccc(-c2ncco2)cc1-c1ccc(NC(=O)C(C)C)cc1 [Compound 4, N-(2′-Methyl-5′-oxazol-2-yl-biphenyl-4-yl)-isobutyramide] | < 20
O=C(Nc1ccc(-c2cc(C(F)(F)F)ccc2Cl)cc1)C1CC=CCC1 (centres unmarked) [Compound 127, N-(2′-chloro-5′-(trifluoromethyl)biphenyl-4-yl)cyclohex-3-enecarboxamide] | 50 to 100
O=C(Nc1ccc(-c2cc(C(F)(F)F)ccc2Cl)cc1)C1CCCCC1 [Compound 107, N-(2′-chloro-5′-(trifluoromethyl)biphenyl-4-yl)cyclohexanecarboxamide] | < 20
Cc1ccc(-c2ncco2)cc1-c1ccc(NC(=O)C2CCC2)cc1 [Compound 6, Cyclobutanecarboxylic acid (2′-methyl-5′-oxazol-2-yl-biphenyl-4-yl)-amide] | 20 to 50
Cc1ccc(-c2ncco2)cc1-c1ccc(NC(=O)C2CC2)cc1 [Compound 5, Cyclopropanecarboxylic acid (2′-methyl-5′-oxazol-2-yl-biphenyl-4-yl)-amide] | 50 to 100
Cc1ccc(-c2ncco2)cc1-c1ccc(NC(=O)N2CCN(C)CC2)cc1 [Compound 146, 4-Methyl-piperazine-1-carboxylic acid (2′-methyl-5′-oxazol-2-yl-biphenyl-4-yl)-amide] | > 1000
CCCC(=O)Nc1ccc(-c2cc(-c3ncco3)ccc2C)cc1 [Compound 3, N-(2′-Methyl-5′-oxazol-2-yl-biphenyl-4-yl)-butyramide] | < 20
Cc1ccc(-c2ncco2)cc1-c1ccc(NC(=O)C(N)CC(C)C)cc1 (centres unmarked) [Compound 10, 2-Amino-4-methyl-pentanoic acid (2′-methyl-5′-oxazol-2-yl-biphenyl-4-yl)-amide] | > 500
CCC(=O)Nc1ccc(-c2cc(-c3ncco3)ccc2C)cc1 [Compound 2, N-(2′-Methyl-5′-oxazol-2-yl-biphenyl-4-yl)-propionamide] | 50 to 100
Cc1ccc(-c2ncco2)cc1-c1ccc(NCC(C)C)cc1 [Compound 144, N-isobutyl-2′-methyl-5′-(oxazol-2-yl)biphenyl-4-amine] | 100 to 500
CC(=O)Nc1ccc(-c2cc(-c3ncco3)ccc2C)cc1 [Compound 1, N-(2′-Methyl-5′-oxazol-2-yl-biphenyl-4-yl)-acetamide] | > 500
O=C(Nc1ccc(-c2cc(C(F)(F)F)ccc2Cl)cc1)C1CCNCC1 [Compound 129, N-(2′-chloro-5′-(trifluoromethyl)biphenyl-4-yl)piperidine-4-carboxamide] | > 1000
O=C(Nc1ccc(-c2cc(C(F)(F)F)ccc2Cl)cc1)C1CC2C=CC1C2 (centres unmarked) [Compound 132, N-(2′-chloro-5′-(trifluoromethyl)biphenyl-4-yl)bicyclo[2.2.1]hept-5-ene-2-carboxamide] | > 500
Cc1ccc(-c2ncco2)cc1-c1ccc(NC(=O)/C=C/c2ccccc2)cc1 [Compound 48, N-(2′-Methyl-5′-oxazol-2-yl-biphenyl-4-yl)-3-phenyl-acrylamide] | 100 to 500
Cc1ccc(-c2ncco2)cc1-c1ccc(NC(=O)C2CCCCC2)cc1 [Compound 106, N-(2′-methyl-5′-(oxazol-2-yl)biphenyl-4-yl)cyclohexanecarboxamide] | < 20
O=C(Nc1ccc(-c2cc(C(F)(F)F)ccc2Cl)cc1)C1CCCN1 (centres unmarked) [Compound 126, N-(2′-chloro-5′-(trifluoromethyl)biphenyl-4-yl)pyrrolidine-2-carboxamide] | > 1000
Cc1ccc(-c2ncco2)cc1-c1ccc(NCCO)cc1 [Compound 145, 2-(2′-methyl-5′-(oxazol-2-yl)biphenyl-4-ylamino)ethanol] | > 1000
